Experimental data published in the supplement of paper PMC10307832.

Experiments:
Assay in all cases: relative viability (nuclei count vs DMSO), 5 days (fraction); higher = more cells survive
CX-5461 + Trametinib = compound: Cc1cnc(CNC(=O)c2c(=O)c3ccc(N4CCCN(C)CC4)nc3n3c2sc2ccccc23)cn1 [CX-5461] + CC(=O)Nc1cccc(-n2c(=O)n(C3CC3)c(=O)c3c(Nc4ccc(I)cc4F)n(C)c(=O)c(C)c32)c1 [Trametinib] (partner 0.02 µM)
How it was run: (§1)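 Relative viability equals treated-well nuclei counts divided by vehicle-well nuclei counts. Counts came from 4× images of lung cancer cell lines grown in 1536-well plates for 5 days after pin-tool dosing on the day after seeding. Dosing used one drug alone or a fixed anchor-drug dose plus five library-drug doses (not always all listed) in √10 steps, and values are medians of duplicate plates.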

IMD-0354 + Pictilisib = compound: O=C(Nc1cc(C(F)(F)F)cc(C(F)(F)F)c1)c1cc(Cl)ccc1O [IMD-0354] + CS(=O)(=O)N1CCN(Cc2cc3nc(-c4cccc5[nH]ncc45)nc(N4CCOCC4)c3s2)CC1 [Pictilisib] (partner 1 µM)
How it was run: as §1

CX-5461 + Luminespib = compound: Cc1cnc(CNC(=O)c2c(=O)c3ccc(N4CCCN(C)CC4)nc3n3c2sc2ccccc23)cn1 [CX-5461] + CCNC(=O)c1noc(-c2cc(C(C)C)c(O)cc2O)c1-c1ccc(CN2CCOCC2)cc1 [Luminespib] (partner 0.01 µM)
How it was run: as §1

IMD-0354 + Olaparib = compound: O=C(Nc1cc(C(F)(F)F)cc(C(F)(F)F)c1)c1cc(Cl)ccc1O [IMD-0354] + O=C(c1cc(Cc2n[nH]c(=O)c3ccccc23)ccc1F)N1CCN(C(=O)C2CC2)CC1 [Olaparib] (partner 8 µM)
How it was run: as §1

| Cell Line | relative viability (CX-5461 + Trametinib; first compound 0.01 µM) | relative viability (CX-5461 + Trametinib; first compound 0.03162 µM) | relative viability (CX-5461 + Trametinib; first compound 0.1 µM) | relative viability (CX-5461 + Trametinib; first compound 0.3162 µM) | relative viability (CX-5461 + Trametinib; first compound 1 µM) | relative viability (IMD-0354 + Pictilisib; first compound 0.04 µM) | relative viability (IMD-0354 + Pictilisib; first compound 0.1265 µM) | relative viability (IMD-0354 + Pictilisib; first compound 0.4 µM) | relative viability (IMD-0354 + Pictilisib; first compound 1.265 µM) | relative viability (IMD-0354 + Pictilisib; first compound 4 µM) | relative viability (CX-5461 + Luminespib; first compound 0.01 µM) | relative viability (CX-5461 + Luminespib; first compound 0.03162 µM) | relative viability (CX-5461 + Luminespib; first compound 0.1 µM) | relative viability (CX-5461 + Luminespib; first compound 0.3162 µM) | relative viability (CX-5461 + Luminespib; first compound 1 µM) | relative viability (IMD-0354 + Olaparib; first compound 0.04 µM) | relative viability (IMD-0354 + Olaparib; first compound 0.1265 µM) | relative viability (IMD-0354 + Olaparib; first compound 0.4 µM) | relative viability (IMD-0354 + Olaparib; first compound 1.265 µM) | relative viability (IMD-0354 + Olaparib; first compound 4 µM) |
| --- | --- | --- | --- | --- | --- | --- | --- | --- | --- | --- | --- | --- | --- | --- | --- | --- | --- | --- | --- | --- |
| 201T | 0.706 | 0.73 | 0.693 | 0.75 | 0.721 | 0.785 | 0.661 | 0.584 | 0.59 | 0.41 | 1.05 | 1.04 | 1.05 | 1.06 | 1.11 | 0.872 | 0.833 | 0.532 | 0.849 | 0.291 |
| A549 |  |  |  |  |  | 0.655 | 0.547 | 0.237 | 0.0721 | 0.124 |  |  |  |  |  | 0.365 | 0.555 | 0.108 | 0.0898 | 0.0605 |
| A-427 | 0.815 | 0.798 | 0.661 | 0.488 | 0.578 | 0.749 | 0.683 | 0.674 | 0.164 | 0.116 | 0.965 | 0.899 | 0.953 |  | 0.721 | 0.847 | 0.809 | 0.494 | 0.128 | 0.15 |
| ABC-1 |  |  |  |  |  | 0.753 | 0.643 | 0.447 | 0.25 | 0.263 | 0.531 | 0.691 | 0.521 | 0.402 | 0.303 | 1.13 | 0.823 | 0.404 |  | 0.427 |
| BEN | 0.936 | 0.96 | 1.11 | 1.17 | 1.04 | 0.639 | 0.57 | 0.369 | 0.294 | 0.211 | 0.326 | 0.391 | 0.289 | 0.337 | 0.181 | 1.07 | 0.975 | 0.782 | 0.437 | 0.394 |
| CAL-12T | 0.367 | 0.297 | 0.302 | 0.344 | 0.181 | 0.373 | 0.548 | 0.315 | 0.189 | 0.178 | 0.302 | 0.534 | 0.31 | 1.51 | 0.24 | 0.728 | 0.705 | 0.492 | 0.181 | 0.203 |
| COR-L23 | 0.779 | 0.727 | 0.556 | 0.435 | 0.366 | 0.636 | 0.646 | 0.371 | 0.131 | 0.211 | 0.641 | 0.597 | 0.512 | 0.547 | 0.333 | 0.298 | 0.32 | 0.286 | 0.104 | 0.127 |
| COR-L 105 | 0.448 | 0.47 | 0.429 | 0.388 | 0.352 | 0.439 | 0.351 | 0.303 | 0.278 | 0.293 | 0.839 | 0.703 | 0.907 | 0.667 | 0.699 | 0.644 | 0.666 | 0.62 | 0.562 | 0.443 |
| Calu-6 |  |  |  |  |  | 0.988 | 0.87 | 0.379 | 0.121 | 0.0686 |  |  |  |  |  | 0.555 | 0.57 | 0.428 | 0.138 | 0.111 |
| ChaGo-K-1 | 0.875 | 0.978 | 0.874 | 0.922 | 0.849 | 1.11 | 1.22 | 0.495 | 0.216 | 0.301 | 0.595 | 0.626 | 0.548 | 0.668 | 0.462 | 0.34 | 0.455 | 0.375 | 0.241 | 0.218 |
| EBC-1 |  |  |  |  |  | 0.421 | 0.327 | 0.29 | 0.153 | 0.157 |  |  |  |  |  | 0.616 | 0.661 | 0.503 | 0.183 | 0.171 |
| EKVX | 0.389 | 0.306 | 0.482 |  | 0.265 | 0.477 | 0.465 |  | 0.389 | 0.174 | 0.868 | 0.91 | 0.728 | 0.843 | 0.689 | 0.964 | 0.755 |  | 0.634 | 0.204 |
| EMC-BAC-2 | 0.91 | 0.888 | 0.629 | 0.45 | 0.429 | 0.647 | 0.545 | 0.41 | 0.416 | 0.225 | 1.14 | 1.27 | 1.15 | 1.11 | 0.756 | 0.456 | 0.511 | 0.327 | 0.226 | 0.26 |
| EPLC-272H | 0.27 | 0.308 | 0.268 |  | 0.318 | 0.327 | 0.265 | 0.231 | 0.264 | 0.103 | 0.324 | 0.192 | 0.196 |  | 0.356 | 1.16 | 0.495 | 0.599 | 0.106 | 0.38 |
| H3255 | 0.614 | 0.639 | 0.671 |  | 0.558 | 0.469 | 0.421 | 0.342 | 0.34 | 0.251 | 0.896 | 0.859 | 0.932 | 0.811 | 0.941 | 0.49 | 0.541 | 0.435 | 0.37 | 0.318 |
| HARA | 0.545 | 0.772 | 0.573 | 0.661 | 0.644 | 0.598 | 0.3 | 0.393 | 0.116 | 0.193 | 0.711 | 1.15 | 1.09 |  | 0.392 | 0.455 | 0.697 | 0.935 | 0.167 | 0.311 |
| HCC-15 | 0.419 | 0.31 | 0.383 | 0.376 | 0.34 | 0.632 | 0.696 | 0.437 | 0.14 | 0.133 | 0.236 | 0.331 | 0.305 | 0.359 | 0.216 | 0.576 | 0.69 | 0.474 | 0.317 | 0.157 |
| HCC-44 | 0.921 | 1.25 | 1.11 | 1.14 | 1.05 | 0.634 | 0.534 | 0.415 | 0.12 | 0.156 | 1.11 | 1.26 | 0.714 | 0.834 | 0.208 | 0.994 | 1.04 | 0.571 | 0.789 | 0.296 |
